# Values quoted from earlier work, collected in US11058694B2, “Nutritional supplements for growth enhancement in pre-pubertal adolescents” (Nutritional Growth Solutions LTD, priority 2014, dated 2021).
# Key:
# [1] = versus placebo, daily syrup for six months
# [2] = 33 randomized controlled intervention trials
# [3] = 6-12 months follow-up, normal serum zinc levels
compound,measurement,setting,value
[Fe] [iron],"increase in hemoglobin concentrations, effect size","iron interventions, 95% CI: 0.46, 2.51",1.49
same,effect of supplementation intervention on child growth,iron supplementation,no significant effect
[Zn] [zinc],mean height for age Z-score,[1],decreased to a greater extent than placebo
same,responses in height and in weight increments,[2],significant positive responses
same,height or weight-SDS,[3],did not significantly changed
vitamin A,effect of supplementation interventions on growth,vitamin A supplementation,no significant effect on growth
